Measurements: patent US20210284668A1, “GOLD (I)-PHOSPHINE 1,2,3-TRIAZOLE DERIVATIVES WITH ANTIBIOTIC PROPERTIES” (Centre National de la Recherche Scientifique, priority 2018, published 2021)
Where “and” joins values, the source holds several entries; their conditions need not be identical. Equal entries are not always repeated.

How the values were obtained:
[1] = test system: panel of Gram-positive and Gram-negative strains; experiment: Antibacterial profile on the selected panel of strains; format: cell-based; conditions: summary of Tables 1-12
Method: (§1) The antibacterial profile of each derivative was evaluated by the standard microdilution method for susceptibility testing on 16 different strains, following the guidelines of CLSI. The selected panel included: • S. aureus ATCC25923 (MecA negative, wild-type) • S. aureus ATCC29213 (MecA negative, wild-type) • S. aureus ATCC700699 (MecA positive, glycopeptide resistant) • S. aureus ST20131365 (MecA positive, glycopeptide resistant) • S. epidermidis ATCC14990 (MecA negative, wild-type) • S. epidermidis ATCC35984 (MecA positive) • S. epidermidis ST20140436 (MecA positive, glycopeptide resistant) • S. epidermidis ST20150446 (MecA positive, glycopeptide resistant) • E. faecalis JH2-2 (wild-type) • E. faecalis UCN41 (VanA positive, glycopeptide resistant) • E. faecalis V583 (VanB positive, glycopeptide resistant) • E. faecium ATCC19434T (wild-type) • E. faecium BM4147 (VanA positive, glycopeptide resistant) • E. faecium AUS0004 (VanB positive, glycopeptide resistant) • E. coli ATCC25922 (wild-type) • Clostridium difficile ATCC9689 (wild-type)
(§2) Both series issued from the SAR study were evaluated for their antibacterial activity on a panel of characterized strains obtained from the French National Reference Centers for Staphylococci (Lyon, Pr. Fréderique Laurent) and for Enterococci (Caen, Pr. Vincent Cattoir), respectively. As shown in the following tables, both series contain very active compounds on multi-resistant Gram-positive bacteria (Minimal Inhibitory Concentrations lower than comparator antibiotic ampicillin). Furthermore, a very important antibacterial effect has been shown too on a strain of Clostridium difficile, a Gram-positive, spore-forming, bacillus responsible for post-antibiotic diarrhoae.
(§3) The antibacterial activity of test compounds was evaluated on a selected panel of Gram-positive (4 Staphylococcus aureus, 4 Staphylococcus epidermidis, 3 Enterococcus faecalis, 3 Enterococcus faecium, 1 Clostridium difficile) and Gram-negative strains (1 Escherichia coli, 1 Klebsiella pneumoniae, 1 Pseudomonas aeruginosa, 1 Acinetacter baumannii) with known features of antibiotic resistance (from wild-type susceptibility to multi-drug resistance). The Minimal Inhibitory Concentration (MIC) of test compounds was determined in duplicate by the microdilution method in 96-well microplates with a final volume of 100 μL per well and Mueller-Hinton broth as the growth medium, as recommended by the CLSI (Clinical and Laboratory Standards Institute, document Mo7-A10, USA).

E. faecalis V583 = experiment: MIC by microdilution, E. faecalis V583; format: cell-based, Enterococcus faecalis; conditions: E. faecalis V583 (VanB positive, glycopeptide resistant), in duplicate
Method: as §1, §2, §3

S. epidermidis ATCC14990 = experiment: MIC by microdilution, S. epidermidis ATCC14990; format: cell-based, Staphylococcus epidermidis; conditions: S. epidermidis ATCC14990 (MecA negative, wild-type), in duplicate
Method: as §1, §2, §3

E. faecalis JH2-2 = experiment: MIC by microdilution, E. faecalis JH2-2; format: cell-based, Enterococcus faecalis; set-up: unit not given here; conditions: E. faecalis JH2-2 (wild-type), in duplicate
Method: as §1, §2, §3

E. faecium AUS0004 = experiment: MIC by microdilution, E. faecium AUS0004; format: cell-based, Enterococcus faecium; conditions: E. faecium AUS0004 (VanB positive, glycopeptide resistant), in duplicate
Method: as §1, §2, §3

E. faecalis UCN41 = experiment: MIC by microdilution, E. faecalis UCN41; format: cell-based, Enterococcus faecalis; set-up: unit not given here; conditions: E. faecalis UCN41 (VanA positive, glycopeptide resistant), in duplicate
Method: as §1, §2, §3

S. aureus ATCC700699 = experiment: MIC by microdilution, S. aureus ATCC700699; format: cell-based, Staphylococcus aureus; set-up: unit not given here; conditions: S. aureus ATCC700699 (MecA positive, glycopeptide resistant), in duplicate
Method: as §1, §2, §3

E. coli ATCC25922 = experiment: MIC by microdilution, E. coli ATCC25922; format: cell-based, Escherichia coli; conditions: E. coli ATCC25922 (wild-type), in duplicate
Method: as §1, §2, §3

S. aureus ST20131365 = experiment: MIC by microdilution, S. aureus ST20131365; format: cell-based, Staphylococcus aureus; conditions: S. aureus ST20131365 (MecA positive, glycopeptide resistant), in duplicate
Method: as §1, §2, §3

S. aureus ATCC29213 = experiment: MIC by microdilution, S. aureus ATCC29213; format: cell-based, Staphylococcus aureus; conditions: S. aureus ATCC29213 (MecA negative, wild-type), Mueller-Hinton broth, in duplicate
Method: as §1, §2, §3

[2] = test system: Clostridium difficile ATCC700057; experiment: MIC by microdilution, Clostridium difficile; format: cell-based; conditions: strain ATCC70057 [sic] (Tables 1-2) / ATCC700057 (Tables 3-10), in duplicate
E. faecium ATCC19434T = experiment: MIC by microdilution, E. faecium ATCC19434T; format: cell-based, Enterococcus faecium; set-up: unit not given here; conditions: E. faecium ATCC19434T (wild-type), in duplicate
Method: as §1, §2, §3

S. aureus ATCC25923 = experiment: MIC by microdilution, S. aureus ATCC25923; format: cell-based, Staphylococcus aureus; conditions: S. aureus ATCC25923 (MecA negative, wild-type), Mueller-Hinton broth, in duplicate
Method: as §1, §2, §3

E. faecium BM4147 = experiment: MIC by microdilution, E. faecium BM4147; format: cell-based, Enterococcus faecium; set-up: unit not given here; conditions: E. faecium BM4147 (VanA positive, glycopeptide resistant), in duplicate
Method: as §1, §2, §3

S. epidermidis ATCC35984 = experiment: MIC by microdilution, S. epidermidis ATCC35984; format: cell-based, Staphylococcus epidermidis; conditions: S. epidermidis ATCC35984 (MecA positive), in duplicate
Method: as §1, §2, §3

[3] = test system: S. epidermidis ST20150446; experiment: MIC by microdilution, S. epidermidis ST20150446; format: cell-based, Staphylococcus epidermidis; conditions: S. epidermidis ST20150446 (MecA positive, glycopeptide resistant), in duplicate
Method: as §1, §2, §3

[4] = test system: S. epidermidis ST20140436; experiment: MIC by microdilution, S. epidermidis ST20140436; format: cell-based, Staphylococcus epidermidis; conditions: S. epidermidis ST20140436 (MecA positive, glycopeptide resistant), in duplicate
Method: as §1, §2, §3

SMILES | antimicrobial / antibacterial activity (in words) [1] | Minimal Inhibitory Concentration (MIC) (E. faecalis V583) | Minimal Inhibitory Concentration (MIC) (S. epidermidis ATCC14990) | Minimal Inhibitory Concentration (MIC) (E. faecalis JH2-2) | Minimal Inhibitory Concentration (MIC) (E. faecium AUS0004) | Minimal Inhibitory Concentration (MIC) (E. faecalis UCN41) | Minimal Inhibitory Concentration (MIC) (S. aureus ATCC700699) | Minimal Inhibitory Concentration (MIC) (E. coli ATCC25922) | Minimal Inhibitory Concentration (MIC) (S. aureus ST20131365) | Minimal Inhibitory Concentration (MIC) (S. aureus ATCC29213) | Minimal Inhibitory Concentration (MIC) [2] | Minimal Inhibitory Concentration (MIC) (E. faecium ATCC19434T) | Minimal Inhibitory Concentration (MIC) (S. aureus ATCC25923) | Minimal Inhibitory Concentration (MIC) (E. faecium BM4147) | Minimal Inhibitory Concentration (MIC) (S. epidermidis ATCC35984) | Minimal Inhibitory Concentration (MIC) [3] | Minimal Inhibitory Concentration (MIC) [4]
CC[P+](CC)(CC)[Au-][c]1nn[nH]c1-c1ccc(C(=O)NC(C(=O)NC2C(=O)N3C2SC(C)(C)C3C(=O)O)c2ccccc2)cc1 (centres unmarked) [TMB22] | have antimicrobial activity | 0.5 | ≤0.06 | 0.5 | 1 | 1 | 0.125 and 0.25 | >8 | 0.25 | 0.125 | ≤0.06 | 1 | 0.125 | 1 |  |  | 
CC[P+](CC)(CC)[Au-][c]1nn[nH]c1-c1ccc(C(=O)O)cc1 [TMB14] | have antimicrobial activity | 1 | ≤0.06 | 0.5 | 0.5 | 0.5 and 1 | 0.125 | >8 | 0.125 and 0.25 | 0.125 | 0.125 | 0.5 | 0.125 | 0.5 | ≤0.06 |  | 
CC[P+](CC)(CC)[Au-][c]1nn[nH]c1C1CCC(C(=O)O)CC1 (centres unmarked) [TMB25] | have antimicrobial activity | 0.125 | ≤0.06 | 0.125 | 0.125 | 0.125 | 0.25 | >8 |  | 0.25 | ≤0.06 | 0.125 |  | 0.125 | ≤0.06 | 0.125 and 0.25 | 
CC[P+](CC)(CC)[Au-][c]1nn[nH]c1-c1c(C)noc1C [TMB43] | have antimicrobial activity | 0.25 | ≤0.06 | 0.25 | 0.25 | 0.25 | 0.125 |  | 0.125 | 0.125 | 0.25 | 0.125 | ≤0.06 | 0.125 | ≤0.06 | ≤0.06 | 0.125
CC[P+](CC)(CC)[Au-][c]1nn[nH]c1COC(=O)N[C@H](CC(=O)O)C(=O)O [TMB29] | have antimicrobial activity | 0.25 | ≤0.06 | 0.25 | 0.5 | 0.25 | 0.125 | >8 | 0.125 | 0.125 | ≤0.06 | 0.25 | 0.125 | 0.25 and 0.5 | ≤0.06 |  | ≤0.06
CC[P+](CC)(CC)[Au-][c]1nn[nH]c1-c1cn[nH]c1 [TMB31] | have antimicrobial activity | 0.25 | ≤0.06 | 0.25 | 0.25 | 0.25 | 0.125 | >8 |  | ≤0.06 | ≤0.06 | 0.25 | ≤0.06 | 0.25 | ≤0.06 | ≤0.06 | ≤0.06
CC[P+](CC)(CC)[Au-][c]1nn[nH]c1-c1ccc(C(=O)NC(C(=O)O)c2ccccc2)cc1 (centres unmarked) [TMB23] | have antimicrobial activity | 0.125 and 0.25 | ≤0.06 | 0.25 | 0.25 | 0.125 | 0.125 | >8 | 0.125 | 0.125 | ≤0.06 | 0.25 | ≤0.06 | 0.25 and 0.5 |  | ≤0.06 | 
CC[P+](CC)(CC)[Au-][c]1nn[nH]c1CNC(=O)CCCC[C@@H]1SC[C@@H]2NC(=O)N[C@@H]21 [TMB42] | have antimicrobial activity | 1 | ≤0.06 | 0.25 | 0.5 | 1 | 0.25 |  | 0.25 | 0.25 | 0.25 | 0.25 | 0.125 | 0.5 | ≤0.06 | ≤0.06 | ≤0.06
